From patent US20140315972A1, “RS)-2-(2-oxo-4-phenylpyrrolidin-1-yl)acetamide compound having modulatory activity with a commensurate effect, pharmaceutical substance (variants) and its application, composition (variants) thereof” (priority 2011, published 2014)
Like-named read-outs stand apart in the source and are kept apart here. Marks after values point to notes of the source that are not given here.

What was measured:
[1] = system: mice; test: Hyperkinesis induced by 5-oxytryptophan (negative symptoms of schizophrenia); assay type: in vivo; details: for Number of shakings: mice, 5-oxytryptophan 300 mg/kg i.p.
Protocol: Studies have been conducted on white outbred male mice (18-24 g), in comparison with the olanzapine (Zyprexa) with intraperitoneal injection.
Phenotropil in all studied doses reduced hyperkinesia (head shakings): at doses of 100 mg/kg—by 88%, at 200 mg/kg—by 87%, and at 300 mg/kg—by 89%. […] Effect of Phenotropil on serotonergic system requires more detailed testing and studies of lower doses, since there is no reason to exclude neuroleptic activity in this test. Preventive or proactive (protective) use of lower doses may be appropriate also in dopaminergic pathology.

[2] = system: rats; test: Forced swimming with freely rotating wheels by Nomura; assay type: in vivo; details: rat pups
Protocol: The antidepressant effect of Phenotropil was studied in adult rats (185-218 g) and rat pups of 28-35 days of age (85-110 g). The test drugs were injected intraperitoneally in the first case and intragastrically in the second case 40 min before the tests. The methods of behavioral despair during forced swimming (Porsolt et al., 1978) and forced swimming with freely rotating wheels (Nomura et al., 1982) were used.
In the study of depression by Porsolt, no significant differences between the effective doses were found (Table 10), while according to the method of Nomura this difference is statistically significant. At a dose of 100 mg/kg, the efficacy of Phenotropil as compared to the control, was 59.0%. At a dose of 200 mg/kg it was +30.0% in comparison with the control group (Table 10.1). […] The effect of Phenotropil was investigated by the method of Nomura also in mature outbred rats (185-218 g).

[3] = Distribution by internal organs after oral administration (GLC); assay type: in vivo; details: rats, 100 mg/kg orally; for concentration at 0.25 h / concentration at 0.5 h / concentration at 1 h / concentration at 1.5 h / concentration at 2 h / concentration at 4 h / concentration at 6 h / concentration at 8 h: both sexes, outbred white, rat, po; for concentration at 0.5 h: 0.50 h; for concentration at 1.5 h: 1.50 h
Protocol: The degree of tropism of the compound in various organs by quantitative content varies and is arranged in descending order as follows: liver, kidneys, heart, and brain. Rapid penetration into the brain confirms the good kinetic ability to penetrate through the blood-brain barrier. In 15 minutes, its presence is detected in the brain, heart, liver and kidneys. In the brain, liver and kidneys, the maximum concentration is achieved in an hour, and 6 hours after oral administration the compound is not detectable any more. […] The maximum concentration of Phenotropil in the myocardium is detected later than in the brain, but it is eliminated from the myocardium also two hours later. In the liver, the maximum concentration is found after an hour and then the concentration is gradually decreasing. One hour after administration, the concentration in the kidneys reaches the maximum, with a gradual decrease further on.

[4] = system: influenza; test: Respiratory viral infection (influenza) of mice during life duration study; assay type: in vivo; details: influenza outbreak
[5] = Body weight in obese rats, 1 month intragastric course; assay type: in vivo; details: for Body weight (%): change vs control (dist. water) = 100
Protocol: Investigation of the effect of Phenotropil on body weight at course intragastric administration for 1 month was performed at doses of 25, 50, 100, 200 and 300 mg/kg/day in white outbred rats of both sexes with obvious signs of obesity (380-430 g) without changes in diet and behavior. Each animal was placed in a standard single cell. The body weight, the amount of water and food consumed per day were recorded.

[6] = system: patients; test: Acneiform rash, topical solution; assay type: in vivo, human; details: for Efficacy expressed in % (acne rush during hormonal alteration): humans, topically 0.1% aqueous solution, baseline control = 100
Protocol: A study of effect of Phenotropil on the scalp and face skin in seborrhea oleosa and on the scalp skin in dry seborrhea, as well in the mixed form, was performed on mixed groups of both sexes (15-37 years). The 0.1% Phenotropil solution was used. In the group with mixed form, additional Phenotropil tablets were administered at a dose of 100 mg per day (in the morning). The baseline examinations were used as control. The prepared samples were rubbed into the scalp once a day 1 or 2 hours before bedtime. In the case of acneiform rash, the skin was wiped in the morning and evening by cotton pads soaked (as usual lotion) by 0.1% aqueous Phenotropil. Washing the hair using shampoo was not recommended. A neutral baby soap “Alice” by OAO Svoboda and the rinse prepared with 25 ml of lemon juice and 100 mg Phenotropil powder per 1000.0 ml water were used. Studies were conducted for 28 calendar days with monitoring examinations every 14 days. In the dry seborrhea group, three patients withdrew from the study after two weeks due to reluctance to undergo further examination; they found it difficult to comply with the regime of the detergents use. The skin state was assessed by a 4-point system, where 0—absent, 1—the effect intensity less than 50.0%, 2—the effect intensity more than 50.0%, 3—the effect intensity more than 80% but less than 100.0% of the cases.

[7] = brain, read-out: Contents of Phenotropil in brain
[8] = heart, read-out: Contents of Phenotropil in heart
[9] = kidney, read-out: Contents of Phenotropil in kidney
[10] = liver, read-out: Contents of Phenotropil in liver

With `NC(=O)CN1CC(c2ccccc2)CC1=O` (racemic) [Compound 1, (RS)-2-(2-oxo-4-phenylpyrrolidine-1-yl)acetamide] the “reduction of hyperkinesia (head shakings)” value (from here on “reduction of hyperkinesia”) ([1]; 100 mg/kg) was 88%, the “reduction of hyperkinesia” value ([1]; 200 mg/kg) was 87% and the “reduction of hyperkinesia” value ([1]; 300 mg/kg) was 89%. The Number of shakings ([1]; 100 mg/kg) was 1.4 ± 0.5, the Number of shakings ([1]; 200 mg/kg) was 1.5 ± 0.8 and the Number of shakings ([1]; 300 mg/kg) was 1.2 ± 0.5. The Number of revolutions ([2]; 100 mg/kg) was 175.4 ± 22.98, the Number of revolutions ([2]; 200 mg/kg) was 143.4 ± 33.14 and the concentration at 0.25 h [3, 7] was 1600 ± 200 ng/g. The concentration at 0.5 h [3, 7] was 2000 ± 300 ng/g, the concentration at 1 h [3, 7] was 6400 ± 800 ng/g and the concentration at 1.5 h [3, 7] was 4000 ± 600 ng/g. The concentration at 2 h [3, 7] was 1200 ± 300 ng/g, the concentration at 4 h [3, 7] was 400 ± 200 ng/g and the concentration at 0.25 h [3, 8] was 3700 ± 600 ng/g. The concentration at 0.5 h [3, 8] was 7900 ± 900 ng/g, the concentration at 1 h [3, 8] was 10100 ± 1000 ng/g and the concentration at 1.5 h [3, 8] was 14300 ± 1300 ng/g. It also gave a concentration at 2 h [3, 8] of 12600 ± 1200 ng/g, a concentration at 4 h [3, 8] of 8400 ± 1000 ng/g and a concentration at 6 h [3, 8] of 4400 ± 800 ng/g. For the same compound, the concentration at 0.25 h [3, 9] was 33200 ± 3400 ng/g, the concentration at 0.5 h [3, 9] was 37500 ± 4000 ng/g and the concentration at 1 h [3, 9] was 55700 ± 5800 ng/g. It also gave a concentration at 1.5 h [3, 9] of 50400 ± 6000 ng/g, a concentration at 2 h [3, 9] of 37200 ± 4100 ng/g and a concentration at 4 h [3, 9] of 28000 ± 3200 ng/g. For the same compound, the concentration at 6 h [3, 9] was 16000 ± 2100 ng/g, the concentration at 8 h [3, 9] was 10100 ± 1300 ng/g and the concentration at 0.25 h [3, 10] was 25600 ± 2400 ng/g. The concentration at 0.5 h [3, 10] was 30100 ± 4300 ng/g, the concentration at 1 h [3, 10] was 75800 ± 8200 ng/g and the concentration at 1.5 h [3, 10] was 67700 ± 7100 ng/g. The concentration at 2 h [3, 10] was 59600 ± 5400 ng/g, the concentration at 4 h [3, 10] was 30200 ± 3400 ng/g and the concentration at 6 h [3, 10] was 17700 ± 2100 ng/g. The concentration at 8 h [3, 10] was 11400 ± 1600 ng/g, the “time after which compound is not detectable (brain, liver and kidneys as printed)” value [3] was 6 h and the “time of complete elimination from the heart” value [3] was 8 h. For the same compound, the “time of first detection in brain, heart, liver and kidneys” value [3] was 15 min, the “time of maximum concentration in brain, liver and kidneys” value [3] was “in an hour” and the “time of maximum concentration in the heart” value [3] was 1 hour 50 minutes. For the same compound, the “surviving mice that did not get sick” value [4] was 46%, the “surviving mice that had been ill but survived” value [4] was 54% and the “mice died, total in treated groups” value ([4]; all control animals died) was 15%. For the same compound, the “Body weight (%)” value ([5]; 25 mg/kg) was −14.0%, the “reduction of body weight relative to control” value ([5]; 25 mg/kg/day i.g. 1 month) was 14% and the “Body weight (%)” value ([5]; 50 mg/kg) was −25.0 * %. For the same compound, the “reduction of body weight relative to control” value ([5]; 50 mg/kg/day i.g. 1 month) was 25%, the “Body weight (%)” value ([5]; 100 mg/kg) was −33.3 * % and the “reduction of body weight relative to control” value ([5]; 100 mg/kg/day i.g. 1 month) was 33.3%. The “Body weight (%)” value ([5]; 200 mg/kg) was −35.0 * %, the “reduction of body weight relative to control” value ([5]; 200 mg/kg/day i.g. 1 month) was 35% and the “Body weight (%)” value ([5]; 300 mg/kg) was −32.0 * %. For the same compound, the “reduction of body weight relative to control” value ([5]; 300 mg/kg/day i.g. 1 month) was 32%, the “effect on acne rash” value ([6]; 0.1% solution, one month) was 79-84% and the “Efficacy expressed in % (acne rush during hormonal alteration)” value ([6]; dry skin) was −84 * %. For the same compound, the “Efficacy expressed in % (acne rush during hormonal alteration)” value ([6]; oily skin) was −79 * %.
